In this assay the target is T1, LCK (Homo sapiens, UniProt P06239).
T1 construct: purchased Thermo Fisher Scientific (Life Technologies) SelectScreen
Description: SelectScreen Z'LYTE. It is filed as biochemical. A digest of the protocol: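 Percent values come from Thermo SelectScreen profiling of NU5455, combining activity and binding assays. CSF1R was run in Z'LYTE format at Km app ATP, and CAMK1 in Adapta format with ATP listed at 10.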

The record followed here is paper PMC6934184, “Selective DNA-PKcs inhibition extends the therapeutic index of localized radiotherapy and chemotherapy” (The Journal of Clinical Investigation, 2019).

T1 sequence (P06239 whole entry): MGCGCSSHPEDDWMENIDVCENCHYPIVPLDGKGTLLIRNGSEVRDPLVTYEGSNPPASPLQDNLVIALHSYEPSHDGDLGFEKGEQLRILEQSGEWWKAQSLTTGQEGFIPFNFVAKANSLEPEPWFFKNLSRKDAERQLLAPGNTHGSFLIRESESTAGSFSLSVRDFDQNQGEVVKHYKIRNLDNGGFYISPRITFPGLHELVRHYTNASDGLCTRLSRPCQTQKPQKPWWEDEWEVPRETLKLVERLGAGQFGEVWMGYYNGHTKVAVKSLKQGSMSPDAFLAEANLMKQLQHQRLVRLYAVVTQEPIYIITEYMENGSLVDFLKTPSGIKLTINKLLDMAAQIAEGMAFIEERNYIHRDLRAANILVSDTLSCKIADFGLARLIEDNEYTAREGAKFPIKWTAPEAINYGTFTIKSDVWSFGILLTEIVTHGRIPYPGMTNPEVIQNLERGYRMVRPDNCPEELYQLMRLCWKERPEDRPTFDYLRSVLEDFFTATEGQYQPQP

In general, inhibition refers to the relative decrease from the control value, in per cent. Low readings indicate little suppression, high ones strong suppression. With `CN(C(=O)CN1CCOCC1)c1ccc2sc3c(-c4cccc5c(=O)cc(N6CC7CCC(C6)O7)oc45)cccc3c2c1` [NU5455], testing at 1 µM gave an inhibition of 9.6%.
